Values after ≈ are worked out from the molar mass of the structure shown. Like-named read-outs stand apart in the source and are kept apart here.
Legend:
A. baumannii PBP2 = A. baumannii PBP2 (Acinetobacter baumannii, UniProt D0C8Z9); assay: Bocillin-FL competition binding via gel filtration, A. baumannii PBP2
Procedure, shortened: (§1)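 Enzyme was pre-incubated with rising inhibitor concentrations, then Bocillin-FL was added and incubated 15 minutes more. Bound probe was separated by gel filtration and fluorescence read. EC50 came from fitting fraction of PBP labelled versus inhibitor concentration to a Hill equation with ymin, ymax and n.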

P. aeruginosa ATCC 27853 = assay: microbe, parasite or virus in culture; type: cell-based; settings: Pseudomonas aeruginosa, ATCC27853, read-out: Minimum inhibitory concentration, P. aeruginosa ATCC 27853
P. aeruginosa ATCC 35151 = assay: microbe, parasite or virus in culture; type: cell-based; settings: Pseudomonas aeruginosa, ATCC35151, read-out: Minimum inhibitory concentration, P. aeruginosa ATCC 35151
A. baumannii CDC-0036 = assay: microbe, parasite or virus in culture; type: cell-based; settings: Acinetobacter baumannii
A. baumannii PBP1a = target: T1, A. baumannii PBP1a (Acinetobacter baumannii, UniProt A0ABX6CK30); assay: Bocillin-FL competition binding via gel filtration, A. baumannii PBP1a; settings: competition binding assay using Bocillin-FL via gel filtration; read-out: A. baumannii PBP1a Potency
T1 sequence (A0ABX6CK30 1-851): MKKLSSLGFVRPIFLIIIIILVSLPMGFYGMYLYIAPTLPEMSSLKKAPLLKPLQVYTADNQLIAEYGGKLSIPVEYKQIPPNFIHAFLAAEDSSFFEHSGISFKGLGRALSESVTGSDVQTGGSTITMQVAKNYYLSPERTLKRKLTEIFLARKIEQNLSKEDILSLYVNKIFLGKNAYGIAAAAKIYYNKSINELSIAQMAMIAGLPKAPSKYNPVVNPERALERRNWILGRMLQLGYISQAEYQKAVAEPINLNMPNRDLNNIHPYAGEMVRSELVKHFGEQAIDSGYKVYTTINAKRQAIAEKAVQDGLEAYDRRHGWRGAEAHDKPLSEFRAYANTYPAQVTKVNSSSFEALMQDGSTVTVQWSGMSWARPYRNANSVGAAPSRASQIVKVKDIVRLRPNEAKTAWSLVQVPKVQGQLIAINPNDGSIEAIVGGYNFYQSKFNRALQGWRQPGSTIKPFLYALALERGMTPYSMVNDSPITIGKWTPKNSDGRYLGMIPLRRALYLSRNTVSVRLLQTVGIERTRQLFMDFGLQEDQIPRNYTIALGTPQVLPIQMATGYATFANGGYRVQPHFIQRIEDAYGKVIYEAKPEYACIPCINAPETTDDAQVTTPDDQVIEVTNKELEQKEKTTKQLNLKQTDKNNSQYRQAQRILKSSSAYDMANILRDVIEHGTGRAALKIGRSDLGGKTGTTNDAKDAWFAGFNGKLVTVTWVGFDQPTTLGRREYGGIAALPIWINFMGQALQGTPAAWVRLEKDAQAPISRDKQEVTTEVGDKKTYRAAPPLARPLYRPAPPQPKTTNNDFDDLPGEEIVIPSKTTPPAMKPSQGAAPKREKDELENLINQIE
Procedure, shortened: as §1

A. baumannii ATCC 19606 = assay: microbe, parasite or virus in culture; type: cell-based; settings: Acinetobacter baumannii
[1] = tested on: B. humptydooensis ATCC BAA-2767; assay: microbe, parasite or virus in culture; type: cell-based; settings: Burkholderia humptydooensis, ATCCBAA2767, read-out: Minimum inhibitory concentration (MIC), B. humptydooensis ATCC BAA-2767
A. baumannii CDC-0045 = assay: microbe, parasite or virus in culture; type: cell-based; settings: Acinetobacter baumannii
A. baumannii CDC-0033 = assay: microbe, parasite or virus in culture; type: cell-based; settings: Acinetobacter baumannii
[2] = CDC0036, read-out: MIC, A. baumannii CDC-0036
[3] = ATCC19606, read-out: MIC, A. baumannii ATCC 19606
[4] = CDC0045, read-out: MIC, A. baumannii CDC-0045
[5] = CDC0033, read-out: MIC, A. baumannii CDC-0033
[6] = CDC0036, read-out: Minimum inhibitory concentration (MIC), A. baumannii CDC-0036
[7] = ATCC19606, read-out: Minimum inhibitory concentration (MIC), A. baumannii ATCC 19606
[8] = CDC0045, read-out: Minimum inhibitory concentration (MIC), A. baumannii CDC-0045
[9] = CDC0033, read-out: Minimum inhibitory concentration (MIC), A. baumannii CDC-0033

Sequence of A. baumannii PBP2 (D0C8Z9 whole entry): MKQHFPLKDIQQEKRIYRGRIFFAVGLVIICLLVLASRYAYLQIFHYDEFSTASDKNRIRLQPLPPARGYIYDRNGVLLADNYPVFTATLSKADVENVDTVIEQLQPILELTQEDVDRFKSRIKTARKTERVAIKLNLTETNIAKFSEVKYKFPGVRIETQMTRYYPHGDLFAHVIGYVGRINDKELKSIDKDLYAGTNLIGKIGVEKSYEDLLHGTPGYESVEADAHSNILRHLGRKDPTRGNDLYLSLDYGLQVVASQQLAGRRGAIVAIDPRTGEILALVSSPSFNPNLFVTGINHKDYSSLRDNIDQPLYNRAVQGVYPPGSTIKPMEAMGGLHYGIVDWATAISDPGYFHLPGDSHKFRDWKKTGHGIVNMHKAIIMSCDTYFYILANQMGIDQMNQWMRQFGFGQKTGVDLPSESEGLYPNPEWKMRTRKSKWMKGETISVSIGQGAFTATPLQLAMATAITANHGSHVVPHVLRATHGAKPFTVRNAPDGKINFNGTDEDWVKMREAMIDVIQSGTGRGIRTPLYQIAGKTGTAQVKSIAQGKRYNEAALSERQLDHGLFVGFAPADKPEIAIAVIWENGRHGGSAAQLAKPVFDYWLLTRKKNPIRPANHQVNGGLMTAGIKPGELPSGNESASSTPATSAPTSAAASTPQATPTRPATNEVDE

SMILES | EC50 (A. baumannii PBP2) | MIC (P. aeruginosa ATCC 27853) | MIC (P. aeruginosa ATCC 35151) | MIC (A. baumannii CDC-0036; [2]) | EC50 (A. baumannii PBP1a) | MIC (A. baumannii ATCC 19606; [3]) | MIC [1] | MIC (A. baumannii CDC-0045; [4]) | MIC (A. baumannii CDC-0033; [5]) | MIC (A. baumannii CDC-0036; [6]) | MIC (A. baumannii ATCC 19606; [7]) | MIC (A. baumannii CDC-0045; [8]) | MIC (A. baumannii CDC-0033; [9])
O=C(O)c1c(F)ccc2c1OB(O)[C@@H](NC(=O)C(NC(=O)N1CCN(C3CCN(C(=O)Nc4cc(O)cc(Cl)c4)CC3)C(=O)C1=O)c1cc(F)c(O)c(O)c1Cl)C2 (stereo partly drawn) [Example 484, (3R)-3-(2-(2-chloro-5-fluoro-3,4-dihydroxyphenyl)-2-(4-(1-((3-chloro-5-hydroxyphenyl)carbamoyl)piperidin-4-yl)-2,3-dioxopiperazine-1-carboxamido)acetamido)-7-fluoro-2-hydroxy-3,4-dihydro-2H-benzo[e][1,2]oxaborinine-8-carboxylic acid] | < 10 µM | 2 to 4 µg/mL (≈ 2.39 to 4.79 µM) | < 1 µg/mL | 2 to 4 µg/mL (≈ 2.39 to 4.79 µM) | < 10 µM | < 1 µg/mL | > 128 µg/mL | < 1 µg/mL | 2 to 4 µg/mL (≈ 2.39 to 4.79 µM) |  |  |  | 
O=C(O)c1c(F)ccc2c1OB(O)[C@@H](NC(=O)C(NC(=O)N1CCN(C3CCN(S(=O)(=O)Cc4cccc(O)c4)CC3)C(=O)C1=O)c1cc(F)c(O)c(O)c1Cl)C2 (stereo partly drawn) [Example 485, (3R)-3-(2-(2-chloro-5-fluoro-3,4-dihydroxyphenyl)-2-(4-(1-((3-hydroxybenzyl)sulfonyl)piperidin-4-yl)-2,3-dioxopiperazine-1-carboxamido)acetamido)-7-fluoro-2-hydroxy-3,4-dihydro-2H-benzo[e][1,2]oxaborinine-8-carboxylic acid] | < 10 µM | 2 to 4 µg/mL (≈ 2.39 to 4.78 µM) | < 1 µg/mL | < 1 µg/mL | < 10 µM | < 1 µg/mL | 2 to 4 µg/mL (≈ 2.39 to 4.78 µM) | < 1 µg/mL | < 1 µg/mL |  |  |  | 
O=C(O)c1c(F)ccc2c1OB(O)[C@@H](NC(=O)C(NC(=O)N1CCN(C3CCN(C(=O)Nc4ccc(F)c(O)c4F)CC3)C(=O)C1=O)c1cc(F)c(O)c(O)c1Cl)C2 (stereo partly drawn) [Example 486, (3R)-3-(2-(2-chloro-5-fluoro-3,4-dihydroxyphenyl)-2-(4-(1-((2,4-difluoro-3-hydroxyphenyl)carbamoyl)piperidin-4-yl)-2,3-dioxopiperazine-1-carboxamido)acetamido)-7-fluoro-2-hydroxy-3,4-dihydro-2H-benzo[e][1,2]oxaborinine-8-carboxylic acid] | < 10 µM | 2 to 4 µg/mL (≈ 2.39 to 4.78 µM) | < 1 µg/mL |  | < 10 µM |  | 2 to 4 µg/mL (≈ 2.39 to 4.78 µM) |  |  | < 1 µg/mL | < 1 µg/mL | < 1 µg/mL | 2 to 4 µg/mL (≈ 2.39 to 4.78 µM)
O=C(O)c1c(F)ccc2c1OB(O)[C@@H](NC(=O)C(NC(=O)N1CCN(C3CCN(C(=O)Nc4c(F)ccc(O)c4F)CC3)C(=O)C1=O)c1cc(F)c(O)c(O)c1Cl)C2 (stereo partly drawn) [Example 487, (3R)-3-(2-(2-chloro-5-fluoro-3,4-dihydroxyphenyl)-2-(4-(1-((2,6-difluoro-3-hydroxyphenyl)carbamoyl)piperidin-4-yl)-2,3-dioxopiperazine-1-carboxamido)acetamido)-7-fluoro-2-hydroxy-3,4-dihydro-2H-benzo[e][1,2]oxaborinine-8-carboxylic acid] | < 10 µM | < 1 µg/mL | < 1 µg/mL |  | 10 to 50 µM |  | 2 to 4 µg/mL (≈ 2.39 to 4.78 µM) |  |  | < 1 µg/mL | < 1 µg/mL | < 1 µg/mL | 2 to 4 µg/mL (≈ 2.39 to 4.78 µM)
O=C(O)c1c(F)ccc2c1OB(O)[C@@H](NC(=O)C(NC(=O)N1CCN(C3CCN(C(=O)Nc4cc(O)c(F)c(F)c4)CC3)C(=O)C1=O)c1cc(F)c(O)c(O)c1Cl)C2 (stereo partly drawn) [Example 488, (3R)-3-(2-(2-chloro-5-fluoro-3,4-dihydroxyphenyl)-2-(4-(1-((3,4-difluoro-5-hydroxyphenyl)carbamoyl)piperidin-4-yl)-2,3-dioxopiperazine-1-carboxamido)acetamido)-7-fluoro-2-hydroxy-3,4-dihydro-2H-benzo[e][1,2]oxaborinine-8-carboxylic acid] | 10 to 50 µM | 2 to 4 µg/mL (≈ 2.39 to 4.78 µM) | < 1 µg/mL |  | < 10 µM |  | > 128 µg/mL |  |  | 2 to 4 µg/mL (≈ 2.39 to 4.78 µM) | < 1 µg/mL | < 1 µg/mL | 2 to 4 µg/mL (≈ 2.39 to 4.78 µM)
O=C(O)c1c(F)ccc2c1OB(O)[C@@H](NC(=O)C(NC(=O)N1CCN(C3CCN(C(=O)Nc4ccc(Cl)c(O)c4F)CC3)C(=O)C1=O)c1cc(F)c(O)c(O)c1Cl)C2 (stereo partly drawn) [Example 489, (3R)-3-(2-(4-(1-((4-chloro-2-fluoro-3-hydroxyphenyl)carbamoyl)piperidin-4-yl)-2,3-dioxopiperazine-1-carboxamido)-2-(2-chloro-5-fluoro-3,4-dihydroxyphenyl)acetamido)-7-fluoro-2-hydroxy-3,4-dihydro-2H-benzo[e][1,2]oxaborinine-8-carboxylic acid] | < 10 µM | 2 to 4 µg/mL (≈ 2.34 to 4.69 µM) | < 1 µg/mL |  | < 10 µM |  | 32 to 64 µg/mL (≈ 37.5 to 75 µM) |  |  | 2 to 4 µg/mL (≈ 2.34 to 4.69 µM) | < 1 µg/mL | < 1 µg/mL | 2 to 4 µg/mL (≈ 2.34 to 4.69 µM)
O=C(O)c1c(F)ccc2c1OB(O)[C@@H](NC(=O)C(NC(=O)N1CCN(C3CCN(C(=O)Nc4cc(O)c(F)cc4Cl)CC3)C(=O)C1=O)c1cc(F)c(O)c(O)c1Cl)C2 (stereo partly drawn) [Example 490, (3R)-3-(2-(4-(1-((2-chloro-4-fluoro-5-hydroxyphenyl)carbamoyl)piperidin-4-yl)-2,3-dioxopiperazine-1-carboxamido)-2-(2-chloro-5-fluoro-3,4-dihydroxyphenyl)acetamido)-7-fluoro-2-hydroxy-3,4-dihydro-2H-benzo[e][1,2]oxaborinine-8-carboxylic acid] | 10 to 50 µM | 2 to 4 µg/mL (≈ 2.34 to 4.69 µM) | < 1 µg/mL |  | < 10 µM |  | > 128 µg/mL |  |  | 2 to 4 µg/mL (≈ 2.34 to 4.69 µM) | < 1 µg/mL | < 1 µg/mL | 2 to 4 µg/mL (≈ 2.34 to 4.69 µM)
O=C(O)c1c(F)ccc2c1OB(O)[C@@H](NC(=O)[C@H](NC(=O)N1CCN(C3CCN(C(=O)Nc4cc(F)c(F)c(O)c4F)CC3)C(=O)C1=O)c1cc(F)c(O)c(O)c1Cl)C2 [Example 491, (R)-3-((R)-2-(2-chloro-5-fluoro-3,4-dihydroxyphenyl)-2-(2,3-dioxo-4-(1-((2,4,5-trifluoro-3-hydroxyphenyl)carbamoyl)piperidin-4-yl)piperazine-1-carboxamido)acetamido)-7-fluoro-2-hydroxy-3,4-dihydro-2H-benzo[e][1,2]oxaborinine-8-carboxylic acid] | < 10 µM | 2 to 4 µg/mL (≈ 2.34 to 4.68 µM) | < 1 µg/mL |  | < 10 µM |  | 8 to 16 µg/mL (≈ 9.36 to 18.7 µM) |  |  | 2 to 4 µg/mL (≈ 2.34 to 4.68 µM) | < 1 µg/mL | < 1 µg/mL | 2 to 4 µg/mL (≈ 2.34 to 4.68 µM)

Reference: US20240270762A1, “PENICILLIN-BINDING PROTEIN INHIBITORS” (priority 2021, published 2024)
